Laboratory results published in US20030007949A1, “Adhesive treatment for tinea corporis” (CLOSURE MEDICAL CORPORATION, priority 2001, published 2003).

Experiment: Observation of haloprogin / 2-octyl cyanoacrylate monomer composition after preparation
Type: physicochemical
Settings: 30 mg haloprogin in 2 mL 2-octyl cyanoacrylate monomer, observed at about one minute and at least twenty-four hours after preparation
Experimental: A 2-octyl cyanoacrylate monomer composition is prepared by adding 30 mg of haloprogin, an anti-fungal agent, to 2 mL of 2-octyl cyanoacrylate monomer. The mixture is sealed in a glass vial and stirred. The characteristics of the composition are observed at about one minute after preparation and later at least twenty-four hours after preparation.

premature polymerization caused in the monomer: does not cause premature polymerization | solubility of haloprogin in the monomer (sealed glass vial, stirred): soluble
SMILES: Clc1cc(Cl)c(OCC#CI)cc1Cl [haloprogin]
